Data published in ChEMBL document CHEMBL1201862, “PubChem BioAssay data set” (2004).
Active and inactive are the calls of the source.

What was measured:
[1] = target: T1, Mitochondrial peptide methionine sulfoxide reductase (Bos taurus, UniProt P54149); experiment: Absorbance-based biochemical high throughput dose response assay for activators of Methionine sulfoxide reductase A (MsrA).; type: functional
T1 sequence (P54149 whole entry): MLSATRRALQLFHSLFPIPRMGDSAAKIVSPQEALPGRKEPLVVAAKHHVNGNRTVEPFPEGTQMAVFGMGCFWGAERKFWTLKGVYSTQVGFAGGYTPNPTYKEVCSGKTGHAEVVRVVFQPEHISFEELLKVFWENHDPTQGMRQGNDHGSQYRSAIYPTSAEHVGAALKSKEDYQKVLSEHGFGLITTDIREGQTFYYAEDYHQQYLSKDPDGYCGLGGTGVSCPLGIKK

[2] = viability loss in HeLa cells – cytotoxicity control for MgcRacGAP inhibitor project, dose response (AID 624300); type: functional
[3] = target: T2, Rac GTPase-activating protein 1 (Homo sapiens, UniProt Q9H0H5); experiment: blockers of MgcRacGAP-driven Rac1 GTP hydrolysis – biochemical, ADP Hunter fluorescence, primary and confirmatory, confirmation (AID 624330); type: functional
T2 sequence (Q9H0H5 whole entry): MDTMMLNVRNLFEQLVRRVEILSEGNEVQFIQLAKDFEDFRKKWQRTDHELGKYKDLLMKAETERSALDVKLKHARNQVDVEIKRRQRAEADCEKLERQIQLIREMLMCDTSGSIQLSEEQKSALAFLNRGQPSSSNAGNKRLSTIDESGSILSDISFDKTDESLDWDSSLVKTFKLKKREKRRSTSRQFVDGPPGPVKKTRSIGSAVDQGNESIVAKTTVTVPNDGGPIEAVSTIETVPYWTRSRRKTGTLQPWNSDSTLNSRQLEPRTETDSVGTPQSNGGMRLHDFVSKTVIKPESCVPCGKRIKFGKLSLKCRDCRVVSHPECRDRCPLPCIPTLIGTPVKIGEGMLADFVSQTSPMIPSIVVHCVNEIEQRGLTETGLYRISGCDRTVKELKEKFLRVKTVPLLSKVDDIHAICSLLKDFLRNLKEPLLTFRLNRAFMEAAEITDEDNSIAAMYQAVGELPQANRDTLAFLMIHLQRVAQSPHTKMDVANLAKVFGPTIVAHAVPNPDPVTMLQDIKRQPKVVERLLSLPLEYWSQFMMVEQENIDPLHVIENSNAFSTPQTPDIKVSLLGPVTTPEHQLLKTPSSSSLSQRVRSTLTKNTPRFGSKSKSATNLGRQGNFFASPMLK

[4] = target: T3, Tyrosyl-DNA phosphodiesterase 2 (Homo sapiens, UniProt O95551); experiment: potency against TDP2 phosphodiesterase activity – biochemical, epi absorbance, IC50, dose response (AID 743297)
T3 sequence (O95551 whole entry): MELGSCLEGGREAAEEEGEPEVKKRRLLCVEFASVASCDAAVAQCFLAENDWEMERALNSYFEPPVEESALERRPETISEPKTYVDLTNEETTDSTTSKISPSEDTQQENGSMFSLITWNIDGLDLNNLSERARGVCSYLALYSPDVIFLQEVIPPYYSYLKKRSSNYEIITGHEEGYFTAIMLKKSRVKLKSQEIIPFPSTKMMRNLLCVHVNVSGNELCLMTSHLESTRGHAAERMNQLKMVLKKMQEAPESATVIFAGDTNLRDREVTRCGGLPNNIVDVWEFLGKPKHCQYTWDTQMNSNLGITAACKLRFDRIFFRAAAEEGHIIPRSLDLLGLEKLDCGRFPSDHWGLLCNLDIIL

[5] = target: NAD-dependent protein deacylase sirtuin-5, mitochondrial (Homo sapiens, UniProt Q9NXA8); experiment: sirtuin-5 deacylation blockers, concentration series – biochemical, fluorescence imaging, cherry-pick, set 5, dose response (AID 720591);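 further: desuccinylation of succinyl peptide AMC substrate read as fluorescence after trypsin release; potency of inhibitors that lower fluorescence and may act on trypsin instead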
Chain of NAD-dependent protein deacylase sirtuin-5, mitochondrial (Q9NXA8 whole entry): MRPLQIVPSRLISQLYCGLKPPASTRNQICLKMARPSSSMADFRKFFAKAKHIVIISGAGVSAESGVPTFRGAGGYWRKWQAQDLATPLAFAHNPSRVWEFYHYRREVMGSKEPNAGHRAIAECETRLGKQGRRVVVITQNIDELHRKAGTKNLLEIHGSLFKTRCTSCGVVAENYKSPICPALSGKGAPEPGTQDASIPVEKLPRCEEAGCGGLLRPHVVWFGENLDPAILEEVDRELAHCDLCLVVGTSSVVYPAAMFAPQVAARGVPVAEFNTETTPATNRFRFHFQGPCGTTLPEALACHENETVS

[6] = reduction of Shn3 3'UTR-driven luciferase in osteoblasts – cell-based, Clone20 osteoblasts, firefly luciferase, cherry-picked, dose response (AID 624132); type: functional;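 further: firefly luciferase luminescence from reporter carrying the Shn3 3'UTR in osteoblasts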
[7] = loss of viability in HepG2 cells – cell-based, CellTiter-Glo, cherry-picked, cytotoxicity control for Shn3 inhibitor project, dose response (AID 624134); type: functional
[8] = non-specific 3'UTR reporter inhibition in Clone20-Shn3RL – cell-based, Renilla luciferase, cherry-picked, counter-screen for Shn3 inhibitor project, dose response (AID 624133); type: functional
[9] = target: Photoreceptor-specific nuclear receptor (Homo sapiens, UniProt Q9Y5X4); type: functional, cell-based;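 further: CHO-S cells with Gal4-NCOR and VP16-NR2E3 two-hybrid luciferase reporter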
Chain of Photoreceptor-specific nuclear receptor (Q9Y5X4 whole entry, the tested form may be a part): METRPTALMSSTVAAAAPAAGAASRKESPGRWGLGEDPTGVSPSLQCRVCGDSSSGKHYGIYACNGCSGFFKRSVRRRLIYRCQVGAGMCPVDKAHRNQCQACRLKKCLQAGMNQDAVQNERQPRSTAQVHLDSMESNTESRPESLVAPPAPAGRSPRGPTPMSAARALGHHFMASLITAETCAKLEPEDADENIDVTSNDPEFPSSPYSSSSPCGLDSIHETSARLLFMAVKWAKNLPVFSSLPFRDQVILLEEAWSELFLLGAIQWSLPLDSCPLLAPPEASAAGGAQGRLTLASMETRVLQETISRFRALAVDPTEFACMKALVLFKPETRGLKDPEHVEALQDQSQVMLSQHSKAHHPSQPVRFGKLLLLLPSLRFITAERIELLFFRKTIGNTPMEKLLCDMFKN

[10] = target: SWI/SNF-related matrix-associated actin-dependent regulator of chromatin subfamily A member 2 (Homo sapiens, UniProt P51531); experiment: Luminescence-based cell-based high throughput dose response assay to identify activators of the function of SWI/SNF related, matrix associated, actin dependent regulator of chromatin, subfamily a, member 2 (SMARCA2, BRM).; type: functional
Chain of SWI/SNF-related matrix-associated actin-dependent regulator of chromatin subfamily A member 2 (P51531 whole entry): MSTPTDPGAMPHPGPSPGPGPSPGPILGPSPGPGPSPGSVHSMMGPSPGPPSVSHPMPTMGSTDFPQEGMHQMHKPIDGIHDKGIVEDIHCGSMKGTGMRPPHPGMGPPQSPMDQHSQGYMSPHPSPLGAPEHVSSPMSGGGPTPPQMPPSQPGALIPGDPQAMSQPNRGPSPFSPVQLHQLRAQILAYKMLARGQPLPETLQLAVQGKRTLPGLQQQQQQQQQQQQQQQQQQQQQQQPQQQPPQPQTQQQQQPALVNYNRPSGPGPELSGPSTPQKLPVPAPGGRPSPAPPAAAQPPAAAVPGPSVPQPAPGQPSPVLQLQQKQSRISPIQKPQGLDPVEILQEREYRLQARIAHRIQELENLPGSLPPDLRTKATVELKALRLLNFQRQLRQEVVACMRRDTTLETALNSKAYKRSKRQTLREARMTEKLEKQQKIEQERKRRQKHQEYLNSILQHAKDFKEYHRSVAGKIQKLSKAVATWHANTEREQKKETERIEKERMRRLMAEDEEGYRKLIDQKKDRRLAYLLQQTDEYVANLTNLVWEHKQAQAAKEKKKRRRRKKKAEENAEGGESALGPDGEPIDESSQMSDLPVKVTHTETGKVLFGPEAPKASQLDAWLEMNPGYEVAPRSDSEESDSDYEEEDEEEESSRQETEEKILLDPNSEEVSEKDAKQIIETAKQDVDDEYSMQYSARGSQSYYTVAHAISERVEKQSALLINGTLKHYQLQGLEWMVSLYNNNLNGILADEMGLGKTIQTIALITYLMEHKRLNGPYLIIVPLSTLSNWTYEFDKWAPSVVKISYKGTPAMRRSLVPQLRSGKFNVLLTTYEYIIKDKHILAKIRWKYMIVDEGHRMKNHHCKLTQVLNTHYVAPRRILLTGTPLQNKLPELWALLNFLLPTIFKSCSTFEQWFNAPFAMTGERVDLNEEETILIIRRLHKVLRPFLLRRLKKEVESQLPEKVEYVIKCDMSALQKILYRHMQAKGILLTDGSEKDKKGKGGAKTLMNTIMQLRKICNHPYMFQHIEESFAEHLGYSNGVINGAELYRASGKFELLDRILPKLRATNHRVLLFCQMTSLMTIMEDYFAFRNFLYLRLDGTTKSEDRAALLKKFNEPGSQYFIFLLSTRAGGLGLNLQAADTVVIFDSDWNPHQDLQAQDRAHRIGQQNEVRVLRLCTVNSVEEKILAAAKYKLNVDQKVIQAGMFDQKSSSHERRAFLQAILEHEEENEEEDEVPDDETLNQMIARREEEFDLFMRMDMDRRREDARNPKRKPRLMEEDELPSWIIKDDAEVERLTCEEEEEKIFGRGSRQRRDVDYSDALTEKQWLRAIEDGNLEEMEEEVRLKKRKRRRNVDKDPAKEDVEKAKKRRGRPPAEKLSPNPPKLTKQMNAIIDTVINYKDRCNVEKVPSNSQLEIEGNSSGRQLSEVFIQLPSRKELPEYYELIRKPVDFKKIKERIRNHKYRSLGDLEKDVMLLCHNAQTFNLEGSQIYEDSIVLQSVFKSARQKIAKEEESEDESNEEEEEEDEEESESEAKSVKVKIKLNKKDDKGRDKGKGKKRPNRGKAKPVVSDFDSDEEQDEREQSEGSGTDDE

[11] = Counterscreen for activators of the function of SWI/SNF related, matrix associated, actin dependent regulator of chromatin, subfamily a, member 2 (SMARCA2, BRM): Luminescence-based cell-based high throughput dose response assay to identify non-selective compounds using the VP16 reporter assay.; type: functional
[12] = activation of miR-122 Renilla sensor silencing – cell-based, Huh7 psiCHECK-miR122, Renilla luciferase, cherry-picked, dose response (AID 651956); type: functional;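 further: huh7 hepatoma cells stably carrying a psiCHECK-2 miR-122 sensor plasmid; renilla luciferase signal reporting endogenous miR-122 activity after 48 h compound exposure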
[13] = general mammalian cell viability loss – activator set, cherry-pick, cytotoxicity control for miR-122 modulator project, dose response (AID 720690); type: functional, cell-based;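 further: HEK293T human cells scored for general mammalian cytotoxicity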
[14] = target: Paired box protein Pax-8 (Homo sapiens, UniProt Q06710); experiment: PAX8 transcriptional activity inhibition in RMG-I – RMG-I cells, luciferase, cherry-pick, dose response (AID 687027); type: functional, cell-based;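 further: luciferase reporter driven by Pax8 target thyroperoxidase promoter measured by SteadyGlo luminescence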
Chain of Paired box protein Pax-8 (Q06710 whole entry): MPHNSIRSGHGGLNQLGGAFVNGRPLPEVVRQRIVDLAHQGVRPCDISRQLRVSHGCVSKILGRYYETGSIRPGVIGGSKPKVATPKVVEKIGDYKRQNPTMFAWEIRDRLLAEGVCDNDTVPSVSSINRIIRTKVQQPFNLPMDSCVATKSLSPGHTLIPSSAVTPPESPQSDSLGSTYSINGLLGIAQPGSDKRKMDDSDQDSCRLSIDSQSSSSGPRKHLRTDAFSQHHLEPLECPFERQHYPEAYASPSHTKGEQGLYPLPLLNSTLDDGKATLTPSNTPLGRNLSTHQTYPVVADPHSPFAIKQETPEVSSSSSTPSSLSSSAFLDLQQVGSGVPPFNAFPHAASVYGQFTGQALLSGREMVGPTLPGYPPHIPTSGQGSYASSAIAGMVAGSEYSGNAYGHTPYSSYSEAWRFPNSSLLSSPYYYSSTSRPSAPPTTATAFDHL

[15] = A2780 cell killing – plate reader, dry powder samples, cytotoxicity control, dose response (AID 743046); type: functional, cell-based
[16] = OVCAR-3 cell viability loss – plate reader, dry powder samples, PAX8 inhibitor project, dose response (AID 743044); type: functional, cell-based
[17] = OVCAR8 cell viability loss – plate reader, dry powder samples, PAX8 project, dose response (AID 743197); type: functional, cell-based; settings: OVCAR-8
[18] = tested on: Cryptococcus neoformans; experiment: PubChem AID 686997; type: functional, organism-based
[19] = viability loss in CEM21 cells – cell-based, plate reader, dry powder, cytotoxicity control, dose response (AID 687026); type: functional

COc1cc(C=c2c3ccccc3n3c2cc(-c2ccccc2)[n+]3C)cc(OC)c1OC
EC50 [1]: > 104 µM (inactive) | CC50 [2]: 100 µM (active) | IC50 [3]: 323 µM (active) | IC50 [4]: > 128 µM (inactive)

COc1cc(C(=O)Nc2nnc(Cc3ccccc3)s2)cc(OC)c1OC
AC50 [5]: > 30 µM (inactive)

C=C1C(=O)OC2CC(C)C3C=CC(=O)C3(C)C(O)C12 (stereo unspecified)
AC50 [6]: < 0.26 µM (active) | AC50 [7]: 5.16 µM (active) | AC50 [8]: 2.68 µM (active) | IC50 [9]: 2.74 µM (active)

C=C1C(=O)OC2C1CCC(C)C1(O)C=CC(=O)C21C (stereo unspecified)
EC50 [10]: > 91.2 µM (inactive) | EC50 [11]: > 91.2 µM (inactive)

CC(C)CC#Cc1ccc2c(c1)O[C@H](CN(C)C(=O)c1ccccc1)[C@H](C)CN([C@H](C)CO)S2(=O)=O
AC50 [12]: 27.2 µM (active) | AC50 [13]: 27.5 µM (active)

COc1ccccc1C#Cc1ccc2c(c1)O[C@@H](CN(C)Cc1cccnc1)[C@@H](C)CN([C@H](C)CO)S2(=O)=O
AC50 [12]: 25.4 µM (active) | AC50 [13]: 9.3 µM (active)

C[C@@H]1CN([C@H](C)CO)C(=O)c2cc(NS(=O)(=O)c3ccc(F)cc3)ccc2O[C@@H](C)CCCCO[C@H]1CN(C)S(=O)(=O)c1ccc(Cl)cc1
AC50 [14]: 6.83 µM (active) | AC50 [15]: 2.97 µM (active) | AC50 [16]: 32 µM (active) | AC50 [17]: > 70 µM (inactive)

COC(=O)C1=C(C)N(Cc2ccccc2)C(=S)NC1c1ccc(Cl)cc1 (stereo unspecified)
AC50 [18]: 28.7 µM (active)

Cc1ccc(-c2nnc3ccc4c(C(F)(F)F)cc(C(F)(F)F)nc4n23)cc1
AC50 [19]: > 70 µM (inactive)
